Five molecules from ChEMBL document CHEMBL5360653, “Marine Alkaloid Lepadins E and H Induce Ferroptosis for Cancer Chemotherapy” (J Med Chem, 2023) can be followed below.

Assay [1] relates to HeLa. Nature of the assay: Cytotoxicity against human HeLa cells incubated for 72 hrs by MTT assay. It is filed as functional, cell-based.
The subject of assay [2] is HeLa. Kind of assay: Cytotoxicity against human HeLa cells assessed as increase in cell viability at 200 nM for 4 hrs relative to control. The class given is functional.
In assay [3] the test system is HeLa. Nature of the assay: Effect on lipid peroxidation in human HeLa cells incubated at 200 nM for 4 hrs by C11-BODIPY581/591 staining based flow cytometric analysis. The class given is functional, cell-based.

Active and inactive are the calls of the source. The rule behind the calls is not given here.

In assay [1], `CCC/C=C/C=C/C(=O)OC` yielded an IC50 above 20 µM.

`CCCCC/C=C/C(=O)OC` had an IC50 in assay [1] above 20 µM.

With `Clc1cccc(CNC2=Nc3ccccc3NC23CCNCC3)c1`, the Activity in assay [2] amounted to 5%. Besides, in assay [3], the outcome was Active.

`CCCCCCCC(=O)O[C@@H]1C[C@H]2[C@@H](CCCC[C@H](O)CCC)CCC[C@H]2N[C@H]1C` showed an IC50 in assay [1] of 11.7 µM.

Consider `CCC[C@@H](O)CCCC[C@H]1CCC[C@H]2N[C@@H](C)[C@H](O)C[C@@H]12`, for which the IC50 in assay [1] was above 20 µM.
